Legend:
[1] = test system: recalcified, citrated whole blood; assay: SONOCLOT clotting time of recalcified, citrated whole blood; assay type: biochemical
Experimental: In such studies, anti-coagulated, citrated whole blood is recalcified to initiate the clotting process in a device which sensitively monitors the formation of the clot. Studies have been expanded from whole blood to include plasma.
(§1) Results were expressed as clotting time in seconds. […] Results are expressed as mean±standard deviation.
(§2) Silver (I) ion was provided as silver nitrate, 5% stock solution. It was diluted 100 fold to 0.05%, or in some cases to 0.01% in the clotting studies. In perfusion studies, a 10 μl aliquot of the solution was applied to the filter paper then dried.
Collagen was from Sigma Chemical Co. […] Heparinase was from Haemoscope Corp. and used at a final concentration of 1 U/mL.

[2] = test system: recalcified, citrated whole blood; assay: Blood perfusion (spread of blood disk) on filter paper impregnated with the composition
Experimental: as §1, §2
The size of the blood disk on the paper was measured.

[3] = test system: citrated blood anticoagulated with heparin; assay: SONOCLOT clotting (recalcification) time of heparinized citrated blood; assay type: biochemical
Experimental: as §1, §2
Collagen was from Sigma Chemical Co. In the clotting time studies, the final concentration of collagen was 0.1-0.2%. Heparinase was from Haemoscope Corp. and used at a final concentration of 1 U/mL.
Recalcification time was measured.

[4] = test system: Platelet Rich Plasma (PRP); settings: 2.9 mM AgNO3, n = 8
Experimental: (§3) The hemostatic compositions of the invention were evaluated in two different systems. In one system, clotting time of recalcified, citrated whole blood in the presence of the hemostatic composition was determined using a SONOCLOT Coagulation Analyzer (Sienco Inc., Wheat Ridge Colo.). […] Results were expressed as clotting time in seconds. In a second system, the hemostatic composition was dried on a cellulose matrix (filter paper), and 7 μl aliquot of fresh blood or recalcified citrated whole blood was placed in the cellulose matrix; resulting in the spreading (perfusion) of the applied blood as an enlarging disk. Upon clotting or reduced perfusion, the further spread of the blood ceases. The surface area of the spread blood in mm^2 is used as an indication of the clotting rate of the blood. Results are expressed as mean±standard deviation. The number of samples run is indicated at the top of each data column.
(§4) This study was undertaken using platelet-rich and platelet-poor plasma to simulate an individual with normal and reduced platelet levels.

[5] = test system: Platelet Poor Plasma (PPP); settings: 2.9 mM AgNO3, n = 8
Experimental: as §3, §4

[6] = final concentration in blood: 1% collagen, 0.6 mM AgNO3 or the combination as labelled, n = 41
[7] = thrombin 0.025 U/mL final, silver ion 2.9 mM final, n = 8
[8] = Study I, filter paper impregnated with 5% AgNO3, 2% collagen or the combination as labelled, n = 13
[9] = Study II, filter paper impregnated with 5% AgNO3, 2% collagen or the combination as labelled, n = 5

## O=[N+]([O-])[O-].[Ag+] [silver(I), silver nitrate]
[1]; [6]
  Clotting time: 220 ± 50 s
[1]; non-heparinized blood
  clot strength, SONOCLOT tracing: the clot is stronger
[1]; non-heparinized blood, without silver 217 seconds
  Clotting time: 81 s
[1]; normal blood, 2.9 mM AgNO3, n = 8
  Clotting time: 109 ± 20 s
[1]; recalcified citrated whole blood, heparin not given, silver nitrate 0.05% (in some cases 0.01%), heparinase 1 U/mL, n = 5
  Clotting time: 94 ± 35 s
[1]; second study
  clot strength, SONOCLOT tracing: stronger clot
[1]; second study, without silver 588 seconds
  Clotting time: 168 s
[1]; [7]
  Clotting time: 91 ± 14 s
[2]; [8]
  Perfusion: 18 ± 4 mm
[2]; Study II, filter paper impregnated with 1% AgNO3, n = 5
  Perfusion: 42 ± 18 mm
[2]; [9]
  Perfusion: 17 ± 2 mm
[3]; 0.25 U/ml heparin, 0.05% or 0.3% silver (I) ion, absence of collagen
  clotting time (FIG. 4, C and D): prolonged clotting time
[3]; heparinized blood, without silver 1930 seconds
  Clotting time: 872 s
[3]; heparinized whole blood
  physical characteristics of the clot (clot strength), SONOCLOT tracing: stronger clot
[4]
  Clotting time: 83 ± 29 s
[5]
  Clotting time: 128 ± 32 s

## collagen
[1]; [6]
  Clotting time: 264 ± 37 s
[2]; [8]
  Perfusion: 35 ± 23 mm
[2]; [9]
  Perfusion: 28 ± 10 mm

## heparin [reference compound]
[3]; citrated blood with heparin 2 U/mL, recalcified, silver nitrate 0.05% (in some cases 0.01%), heparinase 1 U/mL, n = 5
  Clotting time: 1930 ± 83 s

## thrombin
[1]; [7]
  Clotting time: 156 ± 42 s

From US7094428B2, “Hemostatic compositions, devices and methods” (The University of Medicine and Dentistry of New Jersey, priority 2000, dated 2006)
